# Key:
# sfGFP-TEV = assay: Modification of sfGFP-TEV by derivatives of the reagent 1; details: 2 h
# Description: When the benzene ring of the Reagent 1 was modified with different substituents (Michael acceptor 1-1 to 1-4), the difference of different substituents on the addition reaction (for example, the addition activity) was investigated (Table 5). Michael acceptor 1-1 to 1-4 were reacted with sfGFP-TEV.
# MA 2 or MA 2 analogues (i.e. Compounds 1a, 1a-1, 1b, 1b-1) (1 μL, 20 mM in DMSO) and PBS (15 μL, pH=7.4, 50 mM) were added to a solution of GFP-TEV (4 μL, 250 μM in HEPES buffer). After incubation at 37° C. for 2 h, the solution was desalted to give the product before LC-MS analysis.
# [1] = Stability of linker-modified sfGFP in buffer comprising GSH (thiol exchange, mass spectrometry); assay type: physicochemical; details: 37° C., different times
# Description: GSH (0.8 μL, 100 mM) and PBS (20 μL, pH=8.0, 50 mM) were added to a solution of GFP-Linker (20 μL, 40 μM, in PBS) at 37° C. for 48 h. (FIG. 20)
# The stability of a sfGFP modified PhESF as a linker was verified, using the linker 5 and 4 with higher reactivity as controls. After sfGFP had been modified, it was added to the buffer comprising GSH, and was placed at 37° C. for different time, and a mass spectrometry was performed.
Compound,Addition number (sfGFP-TEV),Conv. (%) (sfGFP-TEV),thiol exchange [1]
O=S(=O)(F)/C=C/c1ccccc1 [Michael acceptor 1],2,>99%,did not have a thiol exchange
"CN1C(=O)C=CC1=O [linker 5, reference compound]",,,obviously undergo thiol exchange

# — patent US20240261425A1, “CONJUGATE AND THE PREPARING METHOD AND USE THEREOF” (Nanjing University, priority 2021, published 2024)
